Experimental data published in ChEMBL document CHEMBL4813973, “Discovery of novel N-benzylbenzamide derivatives as tubulin polymerization inhibitors with potent antitumor activities” (Eur J Med Chem, 2021).
pIC50: −log10 of the molar value.

What was measured:
A-431 = assay: Antiproliferative activity against human A-431 cells assessed as reduction in cell viability incubated for 72 hrs by MTT assay; type: functional, cell-based; conditions: A-431, 72 h
HCT-8 [1] = assay: Antiproliferative activity against human HCT-8 cells assessed as reduction in cell viability incubated for 72 hrs by MTT assay; type: functional, cell-based; conditions: for pIC50: Homo sapiens, HCT-8, 72 h, read-out: IC50
MDA-MB-231 = assay: Antiproliferative activity against human MDA-MB-231 cells assessed as reduction in cell viability incubated for 72 hrs by MTT assay; type: functional, cell-based; conditions: MDA-MB-231, 72 h
K562 [2] = assay: cells; conditions: Homo sapiens, K562, 72 h
Description: (§1) Antiproliferative activity against human K562 cells assessed as reduction in cell viability incubated for 72 hrs by MTT assay

L02 = assay: Cytotoxicity against human L02 cells assessed as reduction in cell viability incubated for 72 hrs by MTT assay; type: cell-based; conditions: L02, 72 h
H22 = assay: Antiproliferative activity against mouse H22 cells assessed as reduction in cell viability incubated for 72 hrs by MTT assay; type: functional, cell-based; conditions: H22, 72 h
HepG2 = assay: cells; conditions: Homo sapiens, HepG2, 72 h
K562/VCR = assay: Antiproliferative activity against VCR resistant human K562/VCR cells assessed as reduction in cell viability incubated for 72 hrs by MTT assay; type: functional, cell-based; conditions: k562/vcr
[3] = Resistant index, ratio of IC50 for ADR-resistant human Bel-7402 cells to IC50 for human Bel-7402 cells; type: functional
K562 [4] = system: K562
Description: as §1

HCT-8 [5] = assay: Antiproliferative activity against taxol-resistant human HCT-8 cells assessed as reduction in cell viability incubated for 72 hrs by MTT assay; type: functional, cell-based; conditions: hct-8

Structure (SMILES): COc1ccc(CNC(=O)c2cc(NC(=O)c3ccco3)ccc2N2CCOCC2)cc1O
- pIC50 (A-431): 6.32

Structure (SMILES): COCCNc1ccc([N+](=O)[O-])cc1C(=O)NCc1ccc(OC)c(O)c1
- pIC50 (A-431): < 6.00

Structure (SMILES): COc1ccc(CNC(=O)c2cc(NCc3ccncc3)ccc2N2CCOCC2)cc1O
- pIC50 (A-431): 5.97

Structure (SMILES): COc1ccc(CNC(=O)c2ccccc2N2CCCCC2)cc1O
- pIC50 (HCT-8 [1]): 7.54
- pIC50 (MDA-MB-231): 7.54
- pIC50 (K562 [2]): 7.52
- pIC50 (A-431): 7.52
- pIC50 (L02): 7.01
- pIC50 (H22): 7.54
- pIC50 (HepG2): 7.51

Structure (SMILES): COc1ccc(CNC(=O)c2cc([N+](=O)[O-])ccc2N2CCOCC2)cc1F
- pIC50 (A-431): 7.03

Structure (SMILES): COc1ccc(CNC(=O)c2cc([N+](=O)[O-])ccc2N2CCSCC2)cc1O
- pIC50 (HCT-8 [1]): 7.22
- pIC50 (MDA-MB-231): 7.21
- pIC50 (K562 [2]): 7.31
- pIC50 (A-431): 7.22
- pIC50 (L02): 6.95
- pIC50 (H22): 7.26
- pIC50 (HepG2): 7.24

Structure (SMILES): COc1ccc(N2CCCCC2)c(C(=O)NCc2ccc(OC)c(O)c2)c1
- pIC50 (A-431): 7.24

Structure (SMILES): COc1cccc2c1C(=O)c1c(O)c3c(c(O)c1C2=O)C[C@@](O)(C(=O)CO)C[C@@H]3O[C@H]1C[C@H](N)[C@H](O)[C@H](C)O1.Cl [DOXORUBICIN HYDROCHLORIDE]
- IC50 (HCT-8 [1]; hct-8): Not Active
- IC50 (K562/VCR): Not Active
- Ratio IC50 [3]: 6.3
- IC50 (K562 [4]): Not Active
- IC50 (HCT-8 [5]): Not Active

Structure (SMILES): CCOc1ccc(CNC(=O)c2cc([N+](=O)[O-])ccc2N2CCOCC2)cc1
- pIC50 (A-431): 6.84

Structure (SMILES): COc1ccc(CNC(=O)c2cc(NC(=O)c3ccncc3)ccc2N2CCOCC2)cc1O
- pIC50 (A-431): 6.02

Structure (SMILES): COc1ccc(CNC(=O)c2cc([N+](=O)[O-])ccc2N2CCNCC2)cc1O
- pIC50 (A-431): < 6.00

Structure (SMILES): O=C(OCc1ccc2[nH]ccc2c1)c1cc([N+](=O)[O-])ccc1N1CCOCC1
- pIC50 (A-431): < 6.00

Structure (SMILES): COc1ccc(CNC(=O)c2cc(NC(C)=O)ccc2N2CCOCC2)cc1O
- pIC50 (A-431): 6.66

Structure (SMILES): COc1ccc(CNC(=O)c2cc(-c3ccncc3)ccc2N2CCOCC2)cc1O
- pIC50 (A-431): 6.41

Structure (SMILES): COc1ccc(C(=O)Nc2ccc(N3CCOCC3)c(C(=O)NCc3ccc(OC)c(O)c3)c2)cc1
- pIC50 (A-431): < 6.00

Structure (SMILES): COc1ccc(CNC(=O)c2cc(-c3ccco3)ccc2N2CCOCC2)cc1O
- pIC50 (A-431): 6.67

Structure (SMILES): COc1ccc(CNC(=O)c2cc(NCc3ccco3)ccc2N2CCOCC2)cc1O
- pIC50 (A-431): 6.50

Structure (SMILES): COc1ccc(CNC(=O)c2cnccc2N2CCOCC2)cc1O
- pIC50 (A-431): 6.01

Structure (SMILES): CSc1ccc(CNC(=O)c2cc([N+](=O)[O-])ccc2N2CCOCC2)cc1
- pIC50 (A-431): 6.66

Structure (SMILES): COc1ccc(CNC(=O)c2ccncc2N2CCOCC2)cc1O
- pIC50 (A-431): 6.93

Structure (SMILES): COc1ccc(CNC(=O)c2cc([N+](=O)[O-])ccc2N2CCOCC2)cc1
- pIC50 (A-431): 6.90

Structure (SMILES): COc1ccc(CNC(=O)c2cc([N+](=O)[O-])ccc2N2CCOCC2)cc1O
- pIC50 (HCT-8 [1]): 7.22
- pIC50 (MDA-MB-231): 7.24
- pIC50 (K562 [2]): 7.23
- pIC50 (A-431): 7.35
- pIC50 (L02): 6.94
- pIC50 (H22): 7.30
- pIC50 (HepG2): 7.21

Structure (SMILES): COc1ccc(N2CCOCC2)c(C(=O)NCc2ccc(OC)c(O)c2)c1
- pIC50 (HCT-8 [1]): 7.57
- pIC50 (MDA-MB-231): 7.54
- pIC50 (K562 [2]): 7.21
- pIC50 (A-431): 7.55
- pIC50 (L02): 7.28
- pIC50 (H22): 7.49
- pIC50 (HepG2): 7.54

Structure (SMILES): COc1cc(CNC(=O)c2cc([N+](=O)[O-])ccc2N2CCOCC2)cc(OC)c1OC
- pIC50 (A-431): < 6.00

Structure (SMILES): COc1ccc(CNC(=O)c2ccccc2N2CCOCC2)cc1O
- pIC50 (HCT-8 [1]): 7.21
- pIC50 (MDA-MB-231): 7.26
- pIC50 (K562 [2]): 7.52
- pIC50 (A-431): 7.70
- pIC50 (L02): 6.98
- pIC50 (H22): 7.31
- pIC50 (HepG2): 7.32

Structure (SMILES): O=C(NCc1ccc(O)cc1)c1cc([N+](=O)[O-])ccc1N1CCOCC1
- pIC50 (A-431): < 6.00

Structure (SMILES): COc1ccc(CNC(=O)c2cc(Br)ccc2N2CCOCC2)cc1O
- pIC50 (HCT-8 [1]): 7.52
- pIC50 (MDA-MB-231): 7.54
- pIC50 (K562 [2]): 7.62
- pIC50 (A-431): 7.52
- pIC50 (L02): 6.97
- pIC50 (H22): 7.62
- pIC50 (HepG2): 7.51
